Reference: patent publication US20120165403A1, “METHODS OF INHIBITING THE ACTIVITY OF HSP90 AND/OR ARYL HYDROCARBON RECEPTOR” (UNIVERSITY OF ROCHESTER, priority 2004, published 2012)

Experiments:
[1] = tested on: mouse AhR; experiment: Competitive binding by velocity sedimentation on sucrose density gradients; settings: Hepa cytosol, 2 h, room temperature
Description: Mouse hepatoma cells, Hepa1c1c7 (Hepa), and BP^rCl cells were maintained in modified Eagle's medium (Sigma) supplemented with 10% heat-inactivated fetal bovine serum, sodium pyruvate, L-glutamine, sodium bicarbonate, and Gentamicin (MEM+), at 37° C. in a humid atmosphere with 5% CO2. BP^rCl cells are a derivative of Hepa1c1c7 cells that lack ARNT protein expression and function (Probst et al., Mol. Pharmacol. 44:511-518 (1993), which is hereby incorporated by reference in its entirety). Upon reaching 90% confluency, cells were harvested and homogenized in HEDG buffer (25 mM HEPES, 1.5 mM Na2EDTA, 1 mM dithiothreitol, 10% (v/v) glycerol, pH 7.6) containing protease inhibitors (Roche Applied Science complete mini cocktail tablet, Indianapolis, Ind.). Both Hepa and BP^rC1 cytosols were prepared by centrifugation of the homogenate at 100,000 g for 45 min.
(§1) Competitive binding of EGCG was analyzed by velocity sedimentation on sucrose gradients in a vertical tube rotor (Tsui et al., Can. J. Physiol. Pharmacol 59:927-931 (1981); Jensen et al., Toxicol. Sci. 64:41-56 (2001), which are hereby incorporated by reference in their entirety). Hepa cytosol (100 μl of 2.5 mg/ml) or BP^rCl cytosol was incubated for two hours at room temperature with either 3 nM ^3H-TCDD, 0.5 nM ^3H-TCDD, or 5 nM ^3H-BNF, in the presence of DMSO, 150-fold excess TCDF, 1 μM 3M4NF, or EGCG. Cytosols were washed with charcoal-dextran (1 mg charcoal/mg protein) in HEDG, and applied to a 10-30% (w/v) sucrose gradient in Beckman Quick-Seal centrifuge tubes (Beckman, Palo Alto, Calif.). [Methyl-^14C]-BSA was used as an internal sedimentation marker. The gradients were centrifuged for 2 h at 372,000×g in a Beckman VTI-80 rotor. Fractions were collected from the top at a rate of 1 ml/min, 0.2 ml/fraction. For competitive binding assays, fractions were assayed for radioactivity with ScintiVerse (Fisher Scientific, Fair Lawn, N.J.). […] For AhR and hsp90 density analysis, protein contained within an aliquot (200 of each fraction was separated by SDS-PAGE (7.5% acrylamide resolving gel) and transferred to PVDF membranes. Membranes were probed with antibodies recognizing AhR (Biomol) or hsp90 (Stressgen, Victoria, BC Canada). A crude estimate of the sedimentation coefficient for the EGCG shifted AhR complex was calculated by the method of Martin and Ames (Martin et al., J. Biol. Chem. 236:1372-1379 (1961), which is hereby incorporated by reference in its entirety) relative to the ^14C-BSA (4.4S) standard.

[2] = tested on: AhR; experiment: Immunocytochemistry of AhR subcellular localization in Hepa cells; type: cell-based, mouse; settings: 1 h, EGCG 200 μM or TCDD 150 pM
Description: Hepa cells were plated onto four-well chamber slides (Becton Dickinson, Bedford, Mass.) at a density of 2.0×10^4 and incubated overnight. Cells were treated with either vehicle (DMSO), TCDD (150 pM), EGCG alone (200 μM), or EGCG in the presence of TCDD (150 pM) for 1 h. Cells were fixed with 3.7% formalin at room temperature for 10 minutes, followed by a four minute incubation in anhydrous methanol at 4° C. All antibodies were filtered through a 0.45 micron filter before staining Cells were blocked for one hour in phosphate buffered saline containing 4% BSA, incubated with anti-AhR at a 1:2000 dilution for two hours at room temperature, followed by a one hour incubation with 1:1000 anti-rabbit Alexa-Fluor conjugated secondary antibody (Molecular Probes, Eugene Oreg.). Nuclei were stained with DAPI (0.5 μg/ml) (Molecular Probes) for three minutes at room temperature. Slides were mounted with 50% glycerol and coverslipped. AhR staining and nuclear staining were visualized using a Nikon Eclipse TS110 fluorescent microscope (40× magnification). Fluorescent images were captured using SPOT advanced software.

[3] = tested on: hsp90; experiment: Sucrose density gradient sedimentation of hsp90 in Hepa cytosol; type: biochemical, mouse; settings: 2 h, 200 μM EGCG or 10 nM TCDD
Description: as §1, with “Cytosols were washed with charcoal-dextran (1 mg charcoal/mg protein) in HEDG, and applied to a 10-30% (w/v) sucrose gradient in Beckman Quick-Seal centrifuge tubes (Beckman, Palo Alto, Calif.). [Methyl-^14C]-BSA was used as an internal sedimentation marker. The gradients were centrifuged for 2 h at 372,000×g in a Beckman VTI-80 rotor. Fractions were collected from the top at a rate of 1 ml/min, 0.2 ml/fraction.” left out

[4] = tested on: AhR; experiment: AhR protein levels by western blotting in Hepa cells; type: cell-based, mouse; settings: over 12 hours, EGCG 200 μM or TCDD 150 pM
Description: Hepa cells were plated onto 6-well plates at a density of 5×10^5 cells/well and incubated overnight at 37° C. […] Cells were lysed (0.2% Triton, 5 mM EDTA in PBS) and total protein quantified using the Coomassie Plus Protein Assay Reagent (Pierce, Rockford, Ill.). Protein (30 μg) was separated by SDS-PAGE (7.5% acrylamide resolving gel) and transferred to PVDF membrane (Millipore, Bedford, Mass.). Membranes were probed with antibodies recognizing CYP1A1 (Xenotech, Lenexa, Kans.), AhR (Biomol, Plymouth Meeting, Pa.) and actin (Sigma). The secondary IgG antibodies were coupled to horseradish peroxidase (Jackson Immuno Research, West Grove, Pa.). Both primary and secondary antibodies were used at a dilution of 1:5000 in TBST (50 mM Tris, 300 mM NaCl, 0.5% Tween 20, pH 7.5) containing 5% milk. Proteins were visualized by chemiluminescence (KPL, Gaithersburg, Md.).

## COc1cc(-c2cc(=O)c3ccccc3o2)ccc1[N+](=O)[O-] [3M4NF, 3′-methoxy-4′ nitroflavone, reference compound]
[1]; 3 nM 3H-TCDD
  competition with 3H-TCDD for specific binding to the AhR (9S peak): inhibited the formation of this ^3H-TCDD peak

## O=c1cc(-c2cccc([N+](=O)[O-])c2)oc2ccccc12 [3′-nitroflavone, reference compound]
[1]; 5 nM 3H-BNF
  competition with 3H-BNF for binding to the AhR: very efficiently competed with BNF binding

## Clc1cc2c(cc1Cl)Oc1cc(Cl)c(Cl)cc1O2 [TCDD, 2,3,7,8-tetrachlorodibenzo-p-dioxin, reference compound]
[2]
  subcellular localization of the AhR, treatment alone: redistribution of the AhR from the cytosol to the nucleus
[3]
  effect on the sedimentation pattern of hsp90: did not appear to influence this sedimentation pattern
[4]
  AhR protein levels, treatment alone: decline rapidly
